Source: US20260240828A1, “GLYCOSPHINGOLIPID BIOSYNTHESIS INHIBITORS FOR TREATMENT OF TUMOURS DEPENDENT ON THE ONCOGENE GOLPH3 AND ON ONCOGENES OF THE GOLPH3 CLUSTER” (Golgenia S.R.L., priority 2023, published 2026)

Key:
Type in all cases: cell-based
LnCap = assay: Chemoresistance: growth under adhesion with etoposide, p21 cell cycle arrest, LnCap; conditions: FIG. 2B
Method: (§1) Eliglustat alone has no effect.
(§2) The cells were treated with etoposide at a concentration ranging between 10 and 40 μM for 12-16 hours.
(§3) The p21 levels were determined by immunoblotting as cycle arrest index.

DU145 = assay: Chemoresistance: growth under adhesion with etoposide, p21 cell cycle arrest, DU145; conditions: FIG. 2B
Method: as §1, §2, §3

GSL synthesis = assay: Glycosphingolipid metabolism (radiolabelling of cell sphingosine, TLC); conditions: at 50 micromolar miglustat
Excerpt: To analyse the glycosphingolipid metabolites we used a method based on radiolabelling of cell sphingosine followed by extraction of metabolites and separation by thin-layer chromatography (TLC) as previously described in Rizzo et al., EMOJ, 2021.

[1] = system: lines expressing an oncogene belonging to the GOLPH3 cluster; assay: Growth under adhesion to the matrix and absence of stress; conditions: lines expressing a GOLPH3 cluster oncogene; FIG. 2A1 bottom series
Method: (§4) The growth of tumour lines was evaluated under different experimental conditions. 12 tumour lines, divided into six pairs derived from six different types of tumour, were used. […] The growth of the lines was observed under 3 experimental conditions: 1) absence of anchorage to the matrix; 2) exposure to chemotherapy agents; 3) undisturbed growth under adhesion to the matrix.
(§5) Growth under conditions of adhesion to the matrix and absence of stress (bottom series, black) of the lines expressing an oncogene belonging to the GOLPH3 cluster is not inhibited by miglustat. Inhibition of GSL synthesis was about 70% (at 50 micromolar miglustat).
(§6) GCS enzyme inhibitors such as miglustat, eliglustat and N-[(1R,2R)-2-(2,3-dihydro-1,4-benzodioxin-6-yl)-2-hydroxy-1-(1-pyrrolidinylmethyl)ethyl]-nonanamide (Genz-123346), or P-gp inhibitors such as zosuquidar, were used at two or three different concentrations, depending on the type of dose, to blockade glycosphingolipid biosynthesis in various tumour cells. For the growth assays, new media supplemented with the medicaments were added every three days.
(§7) • 1. Growth in the absence of anchorage (anchorage-independent) • 2. Growth of isolated cell clones (clonogenic analysis) • 3. Growth under adhesion (under adhesion).
(§8) Both the anchorage-independent and clonogenic growth tests were conducted as described previously in Rizzo et al., EMBOJ, 2021. […]

[2] = system: prostate, colon and liver tumour lines expressing an oncogene belonging to the GOLPH3 cluster; assay: Growth under anchorage-independent conditions, lines expressing a GOLPH3 cluster oncogene; conditions: concentrations 0 to 50 micromolar, FIG. 2A1 top series
Method: as §4, §5, §6, §7, §8

[3] = system: tumour lines deriving from the same tumour type which do not express GOLPH3; assay: Growth under anchorage-independent conditions, lines not expressing GOLPH3; conditions: 0 to 50 micromolar; lines of same tumour type not expressing GOLPH3; FIG. 2A1 middle series
Method: as §4, §5, §6, §7, §8

CCCCCCCC(=O)N[C@H](CN1CCCC1)[C@H](O)c1ccc2c(c1)OCCO2 [eliglustat]
effect of co-treatment on etoposide-induced cell cycle arrest (LnCap; co-treatment with etoposide): does not modify said situation
effect of co-treatment on resistance to etoposide (DU145; DU145, co-treatment with etoposide): loses said resistance
effect of inhibitor alone (DU145; without etoposide): no effect

COc1cc([C@@H]2c3cc4c(cc3[C@@H](O[C@@H]3O[C@@H]5CO[C@@H](C)O[C@H]5[C@H](O)[C@H]3O)[C@H]3COC(=O)[C@H]23)OCO4)cc(OC)c1O [etoposide]
cell cycle arrest (p21 synthesis), etoposide alone (LnCap; not expressing a GOLPH3 cluster oncogene): cell cycle arrest (strong increase in p21 synthesis)
response to etoposide alone (chemoresistance) (DU145; DU145, expressing a GOLPH3 cluster oncogene): resistant

CCCCN1C[C@H](O)[C@@H](O)[C@H](O)[C@H]1CO [miglustat]
inhibition at 50 µM (GSL synthesis): ~70%
growth under conditions of adhesion to the matrix and absence of stress [1]: not inhibited
growth under anchorage-independent conditions [2]: inhibited
growth under anchorage-independent conditions [3]: not inhibited
